In test [1] the target is Serine-protein kinase ATM (Homo sapiens, UniProt Q13315). Put plainly: Cellular Assay: Assay a) HT29 cells (ECACC #85061109) were seeded into 384 well assay plates (Costar #3712) at a density of 3500 cells/well in 40 μl EMEM medium containing 1% L glutamine and 10% FBS and allowed to adhere overnight. The following morning compounds of Formula (I) in 100% DMSO were added to assay plates by acoustic dispensing. After 1 h incubation at 37° C. and 5% CO2 plates (up to …. It counts as cell-based, HT-29.

The target of test [2] is Serine/threonine-protein kinase ATR (Homo sapiens, UniProt Q13535). Description: Cellular Assay: Assay b) HT29 cells (ECACC #85061109) were seeded into 384 well assay plates (Costar #3712) at a density of 6000 cells/well in 40 μl EMEM medium containing 1% L glutamine and 10% FBS and allowed to adhere overnight. The following morning compound of Formula (I) in 100% DMSO was added to assay plates by acoustic dispensing. After 1 h incubation at 37° C. and 5% CO2, 40 nl of 3 mM 4NQO in 100% DMSO was added to all wells by acoustic dispensing, except minimum control wells which were left untreated with 4NQO to generate a null response control. Plates were returned to the incubator for a further 1 h. Then cells were fixed by adding 20 μl of 3.7% formaldehyde in PBS solution and incubating for 20 mins at r.t. Then 20 μl of 0.1% Triton X100 in PBS was added and incubated for 10 minutes at r.t., to permeabalise cells. Then the plates were washed once with 50 μl/well PBS, using a Biotek EL405 plate washer. Phospho-Chk1 Ser 345 antibody (Cell Signalling Technology #2348) was diluted 150 fold in PBS containing 0.05% polysorbate/Tween and 15 μl was added to each well and incubated over night at r.t. The next morning plates were washed three times with 50 μl/well PBS, using a Biotek EL405 plate washer, and then 20 μl of secondary Ab solution, containing 500 fold diluted Alexa Fluor 488 Goat anti-rabbit IgG (Molecular Probes #A-11008) and 0.002 mg/ml Hoeschst dye (Molecular Probes #H-3570), in PBST, was added. After 2 h incubation at r.t., the plates were washed three times with 50 μl/well PBS, using a Biotek EL405 plate washer, and plates were then sealed with black plate seals until read. Plates were read using an ArrayScan VTI instrument, using an XF53 filter with 10× objective. A two laser set up was used to analyse nuclear staining with Hoeschst (405 nm) and secondary antibody staining of pChk1 (488 nm). Format: cell-based, HT-29.
Chain of Serine/threonine-protein kinase ATR (Q13535 whole entry): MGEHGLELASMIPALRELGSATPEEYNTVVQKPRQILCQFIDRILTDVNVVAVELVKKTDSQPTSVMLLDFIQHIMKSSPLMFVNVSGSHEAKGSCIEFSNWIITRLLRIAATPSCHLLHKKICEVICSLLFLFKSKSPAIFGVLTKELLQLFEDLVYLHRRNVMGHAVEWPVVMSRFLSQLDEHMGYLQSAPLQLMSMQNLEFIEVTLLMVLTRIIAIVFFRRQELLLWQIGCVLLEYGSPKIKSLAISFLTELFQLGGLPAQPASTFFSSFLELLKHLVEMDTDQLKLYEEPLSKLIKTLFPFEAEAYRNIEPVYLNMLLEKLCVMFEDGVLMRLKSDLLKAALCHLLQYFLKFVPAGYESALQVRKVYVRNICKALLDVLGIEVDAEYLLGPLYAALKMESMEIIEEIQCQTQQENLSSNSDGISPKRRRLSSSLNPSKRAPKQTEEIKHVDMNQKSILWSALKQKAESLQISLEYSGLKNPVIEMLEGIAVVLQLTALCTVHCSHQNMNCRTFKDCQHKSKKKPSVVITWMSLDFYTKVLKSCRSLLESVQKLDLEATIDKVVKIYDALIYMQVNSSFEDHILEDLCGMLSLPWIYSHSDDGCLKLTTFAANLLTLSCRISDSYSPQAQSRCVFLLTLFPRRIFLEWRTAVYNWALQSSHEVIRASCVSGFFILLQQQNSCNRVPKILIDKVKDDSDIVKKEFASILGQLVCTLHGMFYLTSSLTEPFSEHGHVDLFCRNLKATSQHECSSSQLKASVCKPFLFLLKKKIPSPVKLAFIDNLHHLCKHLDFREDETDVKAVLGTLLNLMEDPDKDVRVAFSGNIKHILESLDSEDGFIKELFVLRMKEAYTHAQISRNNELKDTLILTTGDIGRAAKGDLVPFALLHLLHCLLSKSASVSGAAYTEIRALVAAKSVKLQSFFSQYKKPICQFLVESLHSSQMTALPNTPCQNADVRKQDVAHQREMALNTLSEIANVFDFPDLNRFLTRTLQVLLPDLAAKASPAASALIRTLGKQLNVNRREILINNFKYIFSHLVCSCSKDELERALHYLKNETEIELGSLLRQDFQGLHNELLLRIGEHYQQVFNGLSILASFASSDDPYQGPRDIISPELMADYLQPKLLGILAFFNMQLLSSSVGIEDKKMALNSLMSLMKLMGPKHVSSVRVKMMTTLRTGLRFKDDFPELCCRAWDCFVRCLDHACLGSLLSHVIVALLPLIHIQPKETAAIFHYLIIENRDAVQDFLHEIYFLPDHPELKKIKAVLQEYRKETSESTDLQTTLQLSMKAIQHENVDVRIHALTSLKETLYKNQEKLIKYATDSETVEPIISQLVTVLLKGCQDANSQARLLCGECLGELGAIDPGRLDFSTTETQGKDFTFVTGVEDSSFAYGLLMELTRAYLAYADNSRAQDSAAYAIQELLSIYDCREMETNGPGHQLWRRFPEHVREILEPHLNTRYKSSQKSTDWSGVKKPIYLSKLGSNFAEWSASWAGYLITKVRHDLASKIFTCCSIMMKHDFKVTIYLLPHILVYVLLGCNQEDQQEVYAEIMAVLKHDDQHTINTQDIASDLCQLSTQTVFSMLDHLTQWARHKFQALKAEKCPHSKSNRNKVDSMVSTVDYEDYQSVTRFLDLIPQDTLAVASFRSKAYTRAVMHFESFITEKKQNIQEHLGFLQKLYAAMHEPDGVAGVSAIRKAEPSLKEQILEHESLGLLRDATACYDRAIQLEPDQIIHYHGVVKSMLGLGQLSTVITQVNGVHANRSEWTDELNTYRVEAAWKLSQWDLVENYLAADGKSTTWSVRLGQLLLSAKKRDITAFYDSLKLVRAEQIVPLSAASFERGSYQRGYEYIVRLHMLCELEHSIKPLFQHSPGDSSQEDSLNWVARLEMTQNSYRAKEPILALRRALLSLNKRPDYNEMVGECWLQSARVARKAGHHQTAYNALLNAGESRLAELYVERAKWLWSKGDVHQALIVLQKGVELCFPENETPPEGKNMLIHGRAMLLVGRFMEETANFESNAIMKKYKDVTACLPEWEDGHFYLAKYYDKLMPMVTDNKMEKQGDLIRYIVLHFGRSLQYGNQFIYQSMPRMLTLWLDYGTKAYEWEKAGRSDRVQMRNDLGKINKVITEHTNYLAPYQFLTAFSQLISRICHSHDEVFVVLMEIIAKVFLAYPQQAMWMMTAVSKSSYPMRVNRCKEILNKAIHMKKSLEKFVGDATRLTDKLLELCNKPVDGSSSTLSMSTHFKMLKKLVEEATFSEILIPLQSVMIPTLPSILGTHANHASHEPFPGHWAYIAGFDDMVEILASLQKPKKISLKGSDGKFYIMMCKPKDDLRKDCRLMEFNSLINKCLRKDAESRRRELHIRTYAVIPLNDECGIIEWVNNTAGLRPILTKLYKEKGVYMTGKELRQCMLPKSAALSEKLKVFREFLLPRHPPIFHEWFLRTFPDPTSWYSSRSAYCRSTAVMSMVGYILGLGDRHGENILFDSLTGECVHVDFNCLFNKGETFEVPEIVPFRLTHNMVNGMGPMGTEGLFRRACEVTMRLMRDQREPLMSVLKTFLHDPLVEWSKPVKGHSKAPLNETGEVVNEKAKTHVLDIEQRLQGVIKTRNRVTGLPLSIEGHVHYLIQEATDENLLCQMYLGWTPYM

Where only a bound is given, the exact number is not on record here.

For the molecule `CN(C)CCCOc1ccc(-c2ccc3ncc4c(c3c2)n([C@H]2C[C@@H](O)C2)c(=O)n4C)cn1`, the IC50 is 0.24 nM in test [1] and above 30 µM in test [2].
On the same counts, the results for `CN(C)CCCOc1ccc(-c2cc3c(cc2F)ncc2c3n([C@H]3CCCOC3)c(=O)n2C)cn1` are 1.14 nM and above 29.6 µM.
For the molecule `CN(C)CCCOc1ccc(-c2ccc3ncc4c(c3c2)n(C2COC2)c(=O)n4C)cn1`, the concentration for half-maximal inhibition (IC50) in test [1] was 1.46 nM; in test [2], above 30 µM.
For the molecule `CN(C)CCCOc1ccc(-c2cc3c(cc2F)ncc2c3n([C@@H]3CCCOC3)c(=O)n2C)cn1`, the values for the IC50 in test [1] and in test [2] were 1 nM and above 30 µM, respectively.

The values are drawn from ChEMBL document CHEMBL3886912, “Imidazo[4,5-c]quinolin-2-one compounds and their use in treating Cancer” (2016).
